We go through one molecule from patent publication US20260167614A1, “IDENTIFICATION OF SMALL MOLECULES THAT RECRUIT AND ACTIVATE RNASE L” (UNIVERSITY OF FLORIDA RESEARCH FOUNDATION, INCORPORATED, priority 2022, published 2026).

For one assay, the system named is mature and pre-miR-21. As to the kind of experiment: RT-qPCR in RNase L-Targeting sgRNA (knock-down) MDA-MB-231 cells. Type of assay: cell-based. The settings on record: RNase L knocked down by CRISPR. The source says:
Two CRISPR-modified MDA-MB-231 cell lines with either a scrambled control guide RNA (“Control sgRNA”; RNase L is expressed) or with an RNase L-targeting guide RNA (“RNase L-Targeting sgRNA”; RNase L protein abundance is knocked down) were used to complete these studies.
Generation of the RNase L Knockdown MDA-MB-231 Cell Line. RNase L knockdown and control MDA-MB-231 cell lines were generated by CRISPR as previously described.^1 Briefly, lentiviral constructs containing Cas9 and gRNAs against RNASEL or a negative control were purchased from Transomic Technologies, Inc. [catalog #TEVH-1249025-pCLIP-ALL-hCMVPuro (KD+) and TELA1015 (KD−)] and packaged by transfecting HEK293T cells (ATCC, catalog #CRL-11268) using Lipofectamine 2000 transfection reagent (Invitrogen; catalog #11668500) and Cellecta packaging mix (Cellecta, catalog #CPCP-K2A) in Opti-MEM (Gibco, catalog #31985070). Virus supernatants were harvested 72 h post-transfection and filtered through a 0.45 μm PES filter (mdi Membrane Technologies Inc., catalog #SYPL0602MNXX204). […]
RNA Isolation and Quantitative Real-Time Polymerase Chain Reaction (RT-qPCR). […] RT-qPCR was performed on a QuantStudio5™ Real-Time PCR Instrument (Applied Biosystems) using Power SYBR Green Master Mix (Applied Biosystems), and the resulting data were analyzed using the ΔΔCt method.

For another assay, the system named is PDCD4. As to the kind of experiment: Western blot of PDCD4. Type of assay: cell-based. On the procedure: RiboTAC 7 was then assessed for its ability to affect protein levels by deactivation of a miR-21-mediated cancer circuit, i.e., derepression of PDCD4. […] Proteome-wide analysis was also completed to study the effects of 7 and a locked nucleic acid (LNA) oligonucleotide that targets miR-21-5p on the proteome. The concentrations tested of both provided similar activity (5 nM of 7 and 100 nM of the LNA), as assessed by their effect on PDCD4 levels, ˜40% enhancement. […] Neither modality affected proteins that are direct targets of miRNA let-7b-5p, further supporting that RiboTAC 7 is selectively deactivating a miR-21-mediated cancer circuit in cells (FIG. 11C-11D).
Quantification of Protein Levels by Western Blotting. MDA-MB-231 cells were treated as described in “Cell Culture.” After treatment, the medium was removed, and the cells were washed with 1× Dulbecco's phosphate-buffered saline (DPBS). Total protein was extracted using Mammalian Protein Extraction Reagent (M-PER, Thermo Scientific) according to the manufacturer's protocol. Protein concentration was measured using a Pierce Micro BCA Protein Assay kit (Fisher Scientific). […]
Western blots were quantified using ImageJ (National Institutes of Health).^12 Protein expression was normalized to […] abundance. […]

Turning to `CNC(=O)[C@H](c1ccccc1)N(C)Cc1ccc(-c2cccc(-c3sccc3NC(=O)CCOCCOCCOCCC(=O)NCCN3CCN(c4ccc5nc(-c6c(N)c7c(F)cccc7[nH]c6=O)[nH]c5c4)CC3)c2)cc1` [RiboTAC 7, (S)—N-(2-(4-(2-(4-amino-5-fluoro-2-oxo-1,2-dihydroquinolin-3-yl)-1H-benzo[d]imidazol-6-yl)piperazin-1-yl)ethyl)-3-(2-(2-(3-((2-(4′-((methyl(2-(methylamino)-2-oxo-1-phenylethyl)amino)methyl)-[1,1′-biphenyl]-3-yl)thiophen-3-yl)amino)-3-oxopropoxy)ethoxy)ethoxy)propanamide], the “effect on mature and pre-miR-21 levels” value in the assay with mature and pre-miR-21 was “inactive”. The “enhancement of PDCD4 levels” value in the assay with PDCD4 (5 nM of 7 and 100 nM of the LNA as printed) is listed as approximately 40%. The “increase of PDCD4 protein levels” value in the assay with PDCD4 (5 μM, CRISPR-Control sgRNA MDA-MB-231 cells) was approximately 40%.
